{
  "source": "patent US20100249071A1",
  "about": "“Modulators of S1P and Methods of Making And Using” (Exelixis, Inc., priority 2009, published 2010)",
  "key": {"[1]": {"target": "T1, hS1P1R (hEdg1) membrane protein (Homo sapiens, UniProt P21453)", "T1 construct": "purchased Lonza", "T1 sequence (P21453 whole entry)": "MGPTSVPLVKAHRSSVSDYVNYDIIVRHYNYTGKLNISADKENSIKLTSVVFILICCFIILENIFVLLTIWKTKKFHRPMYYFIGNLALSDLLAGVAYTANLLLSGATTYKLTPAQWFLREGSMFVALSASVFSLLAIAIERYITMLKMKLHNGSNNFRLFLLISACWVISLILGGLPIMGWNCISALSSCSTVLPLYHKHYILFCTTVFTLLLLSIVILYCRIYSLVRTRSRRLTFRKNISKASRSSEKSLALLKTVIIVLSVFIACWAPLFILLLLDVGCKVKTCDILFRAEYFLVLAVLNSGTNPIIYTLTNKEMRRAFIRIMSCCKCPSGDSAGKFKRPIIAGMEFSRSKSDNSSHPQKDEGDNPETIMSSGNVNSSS", "test": "hS1P1R GTPγS binding assay (Assay 3a)", "type": "biochemical", "method_in_brief": "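Membranes (4 μg) expressing hS1P1R incubated 1 h at room temperature with 30 μM GDP, 0.1 nM [^35S]GTPγS, 0.25% fatty acid free BSA and serially diluted agonist in Tris-HCl pH 7.9/NaCl/MgCl2/EGTA buffer. Bound [^35S]GTPγS captured on WGA SPA beads (further 1 h) and counted.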"}, "[2]": {"target": "T2, S1P1 (Homo sapiens, UniProt P21453)", "T2 construct": "host or cells: U2OS", "T2 sequence (P32121 whole entry)": "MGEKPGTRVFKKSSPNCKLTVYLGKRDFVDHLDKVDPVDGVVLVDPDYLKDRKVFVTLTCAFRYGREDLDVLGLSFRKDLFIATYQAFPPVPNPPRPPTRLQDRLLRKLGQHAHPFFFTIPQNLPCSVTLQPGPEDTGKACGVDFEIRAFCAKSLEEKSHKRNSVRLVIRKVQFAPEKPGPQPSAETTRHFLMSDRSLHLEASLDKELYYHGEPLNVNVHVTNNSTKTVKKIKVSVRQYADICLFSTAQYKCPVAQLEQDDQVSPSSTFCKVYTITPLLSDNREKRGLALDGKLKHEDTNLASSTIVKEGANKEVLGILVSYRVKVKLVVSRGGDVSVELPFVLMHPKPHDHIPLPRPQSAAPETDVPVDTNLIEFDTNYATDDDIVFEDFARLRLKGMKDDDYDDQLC", "T2 sequence (P21453 whole entry)": "as the sequence (P21453 whole entry) above", "test": "Tango β-arrestin recruitment assay in U2OS cells (Assay 2b)", "type": "cell-based", "details": "read-out: Assay 2b EC50", "method_in_brief": "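In this agonist-mode Tango assay, U2OS cells carrying S1P1 and the reporter were serum-starved 48 h, then exposed overnight at 37 °C to compound (10 points, 3-fold, top 1 μM, 1% DMSO). β-Lactamase F460/F530 ratio was normalized to 1 μM S1P, and EC50 was fitted.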"}, "[3]": {"target": "T3, hS1PR5 (hEdg8) membrane protein (Homo sapiens, UniProt Q9H228)", "T3 construct": "expressed in transfected cells; host or cells: CHO", "T3 sequence (Q9H228 whole entry)": "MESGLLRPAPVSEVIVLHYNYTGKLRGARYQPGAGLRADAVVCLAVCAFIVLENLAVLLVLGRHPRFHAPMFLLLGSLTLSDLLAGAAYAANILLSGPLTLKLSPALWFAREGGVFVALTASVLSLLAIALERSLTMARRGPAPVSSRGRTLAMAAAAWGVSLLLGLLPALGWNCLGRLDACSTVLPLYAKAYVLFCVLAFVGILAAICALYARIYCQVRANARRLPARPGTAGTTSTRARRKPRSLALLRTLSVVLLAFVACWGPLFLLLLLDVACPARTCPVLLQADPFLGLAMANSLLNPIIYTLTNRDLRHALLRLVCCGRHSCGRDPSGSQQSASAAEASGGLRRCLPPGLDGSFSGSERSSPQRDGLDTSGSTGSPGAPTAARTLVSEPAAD", "test": "hS1P5R GTPγS binding assay (Assay 4)", "type": "biochemical", "method_in_brief": "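Membranes (5 μg) from CHO cells expressing hS1PR5, incubated 1 h at room temperature with 30 μM GDP, 0.1 nM [35S]GTPγS, 0.25% fatty acid free BSA and serially diluted compound in pH 7.9 Tris buffer with MgCl2. WGA SPA beads added for another 1 h, then bound [35S]GTPγS counted by scintillation.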"}, "[4]": {"target": "T4, S1P3 (Homo sapiens, UniProt Q99500)", "T4 construct": "host or cells: HEK293 (transient transfection)", "T4 sequence (P32121 whole entry, the tested form may be a part)": "as the sequence (P32121 whole entry) above", "T4 sequence (Q99500 whole entry, the tested form may be a part)": "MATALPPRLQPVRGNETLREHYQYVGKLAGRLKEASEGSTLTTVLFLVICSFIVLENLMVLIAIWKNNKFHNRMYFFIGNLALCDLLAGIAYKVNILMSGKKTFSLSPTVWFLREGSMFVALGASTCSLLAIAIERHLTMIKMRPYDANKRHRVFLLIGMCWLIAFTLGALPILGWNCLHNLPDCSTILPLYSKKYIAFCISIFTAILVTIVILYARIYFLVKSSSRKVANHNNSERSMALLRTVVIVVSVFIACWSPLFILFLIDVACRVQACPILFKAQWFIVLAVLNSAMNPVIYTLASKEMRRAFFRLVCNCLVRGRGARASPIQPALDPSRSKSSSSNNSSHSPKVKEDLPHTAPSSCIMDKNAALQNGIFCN", "test": "S1P3 Tango β-arrestin recruitment assay in HEK293 cells (Assay 5)", "type": "cell-based", "details": "read-out: Assay 5 EC50", "method_in_brief": "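HEK293 cells transiently expressing S1P3 fused via TEV-cleavable linker to tTA, with β-arrestin2–TEV, treated 16-18 h at 37 °C with compounds (top 10 μM, 10-point 3-fold, 1% DMSO). Luciferase reporter luminescence normalised to DMSO background and 5 μM S1P control as percent activity; EC50 from concentration-response curves.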"}, "[5]": {"system": "circulating lymphocytes", "test": "Lymphocyte PD assay in rats", "type": "in vivo, rat", "details": "24 hours after oral single dose at 3 mg/kg, Female CD rats (Sprague Dawley), compared to vehicle-only group", "experimental": "Suppression of circulating lymphocytes was assessed as a PD endpoint in jugular vein canulated Sprague Dawely (SD) rats 6-8 weeks of age and weighing approximately 200 g (Taconic Farms, Germantown, N.Y.). Prior initiating a study, rats were acclimated to the vivarium facility (12 h light cycle, 12 h dark cycle) for a minimum of 2 days. During a study, animals were provided food and water ad libitum and housed in a room conditioned at 70-75° F. and 60% relative humidity. All animals were examined daily for health assessment.\nThe Compound of the Invention were formulated and animals was dosed at a volume of 4 mL/kg. At indicated timepoints, whole blood was collected via jugular vein canulas into EDTA-coated tubes and hematology analysis was performed on an Abbott Cell-Dyn 3700 hematology analyzer. Readouts included white blood cells (total, differential, and % of total), neutrophils, lymphocytes, monocytes, eosinophils, basophils, RBC, HGB, hematocrit, mean corpuscule volume, mean corpuscule HGB concentration, RBC distribution width, platelets, and mean platelet volume."}},
  "note": "pEC50: −log10 of the molar value.",
  "data": [
    {"molecule": "CC(C)Oc1ccc(-c2nnc(-c3cc(F)c(OC[C@H](N)[C@@H](C)O)cc3Cl)s2)cc1Cl", "note": "[Entry 73, (2R,3S)-3-amino-4-{[5-chloro-4-(5-{3-chloro-4-[(1-methylethyl)oxy]phenyl}-1,3,4-thiadiazol-2-yl)-2-fluorophenyl]oxy}butan-2-ol]", "values": [
      {"measurement": "pEC50", "setting": "[1]", "result": "≥ 8.00"},
      {"measurement": "pEC50", "setting": "[2]", "result": "≥ 8.00"},
      {"measurement": "pEC50", "setting": "[3]", "result": "7.30 to 8.00"},
      {"measurement": "pEC50", "setting": "[4]", "result": "< 5.00"},
      {"measurement": "Lymphocyte Counts (p < 0.05)", "setting": "[5]", "result": "−89", "unit": "%"}
    ]},
    {"molecule": "CC(C)Oc1ccc(-c2nnc(-c3cc(F)c(OC[C@H](N)CO)cc3Cl)s2)cc1Cl", "note": "[Entry 1, (2R)-2-amino-3-{[5-chloro-4-(5-{3-chloro-4-[(1-methylethyl)oxy]phenyl}-1,3,4-thiadiazol-2-yl)-2-fluorophenyl]oxy}propan-1-ol]", "values": [
      {"measurement": "pEC50", "setting": "[1]", "result": "7.30 to 8.00"},
      {"measurement": "pEC50", "setting": "[2]", "result": "7.30 to 8.00"},
      {"measurement": "pEC50", "setting": "[3]", "result": "7.30 to 8.00"},
      {"measurement": "pEC50", "setting": "[4]", "result": "< 5.00"},
      {"measurement": "Lymphocyte Counts (p < 0.05)", "setting": "[5]", "result": "−80", "unit": "%"}
    ]},
    {"molecule": "Cc1cc(-c2nnc(-c3cc(F)c(OC[C@H](N)[C@@H](C)O)cc3Cl)s2)cc(NC(C)C)n1", "note": "[Entry 62, (2R,3S)-3-amino-4-{[5-chloro-2-fluoro-4-(5-{2-methyl-6-[(1-methylethyl)amino]pyridin-4-yl}-1,3,4-thiadiazol-2-yl)phenyl]oxy}butan-2-ol]", "values": [
      {"measurement": "pEC50", "setting": "[1]", "result": "≥ 8.00"},
      {"measurement": "pEC50", "setting": "[2]", "result": "≥ 8.00"},
      {"measurement": "pEC50", "setting": "[3]", "result": "7.30 to 8.00"},
      {"measurement": "pEC50", "setting": "[4]", "result": "< 5.00"},
      {"measurement": "Lymphocyte Counts (p < 0.05)", "setting": "[5]", "result": "−79", "unit": "%"}
    ]},
    {"molecule": "CC(C)Oc1ccc(-c2nnc(-c3cc(F)c(OC[C@H](N)CO)cc3Cl)s2)cc1Br", "note": "[Entry 2, (2R)-2-amino-3-{[4-(5-{3-bromo-4-[(1-methylethyl)oxy]phenyl}-1,3,4-thiadiazol-2-yl)-5-chloro-2-fluorophenyl]oxy}propan-1-ol]", "values": [
      {"measurement": "pEC50", "setting": "[1]", "result": "≥ 8.00"},
      {"measurement": "pEC50", "setting": "[2]", "result": "7.30 to 8.00"},
      {"measurement": "pEC50", "setting": "[3]", "result": "7.30 to 8.00"},
      {"measurement": "pEC50", "setting": "[4]", "result": "< 5.00"},
      {"measurement": "Lymphocyte Counts (p < 0.05)", "setting": "[5]", "result": "−93", "unit": "%"}
    ]}
  ]
}
